Data as given in patent publication US4855445A, “Substituted-8-alkenyl-1,3,4,9-tetrahydropyrano[3,4-b]indole-1-acetic acids” (American Home Products Corporation, priority 1987, dated 1989).
Where a name gives a salt, the structure may show the parent alone.

Key:
[1] = tested on: rats; assay: Preventative Adjuvant Edema; type: in vivo, Male Sprague Dawley rats; conditions: p.o., dosed days 0, 1 and 2, edema volume day 3
Protocol: This test is a primary screen for anti-inflammatory drugs.
Male Sprague Dawley rats (180-200 g) are used. The animals have free access to water but food is withdrawn 18 hours before testing.
Drug Preparations and Adminstration:
Freund's complete adjuvant is prepared by suspending 5 mg of killed and dried Mycobacterium butyricum (Difco) in 1 mL mineral oil. The test compounds are dissolved, or suspended in 0.5% Tween 80 in distilled water according to their solubility. […]
The method is essentially that described by Wax et al, J. Pharmacol. Exp. Ther., 192, 166-171 (1975). Groups of rats are injected intradermally in the left hind paw with 0.1 mL of Freund's complete adjuvant. The test compound or vehicle is administered immediately before the adjuvant, 24 hours and 48 hours after the adjuvant (days 0, 1 and 2). The injected hind paw volume is measured before the injection of adjuvant and 24 hrs. after the last drug administration (day 3) by means of a plethysmometer (Buxco Electronics Inc.). The difference between the hind paw volume on day 0 and day 3 represents the edema volume. […]
The mean edema volume (expressed as mL±SEM) is calculated for each group and the percentage protection conferred by the drug is calculated: [formula] where c is the mean edema volume for the vehicle-treated (0.5% Tween 80 in distilled water) controls and t is the mean edema volume for the drug treated group.

[2] = tested on: mice; assay: Drug Effects on Phenylbenzoquinone-induced Writhing in Mice; type: in vivo, Male Swiss albino mice; conditions: p.o., PBQ i.p. 60 minutes after dosing, writhes in 15 min
Protocol: A further test used to determine the utility of the compounds of the present invention is designated: Drug Effects on Phenylbenzoquinone-induced Writhing in Mice
The objective of this test is to determine the ability of test drugs to inhibit the nociceptive (pain) response of mice injected with a chemical irritant. This test is a primary screen for both peripheral and centrally acting analgesic drugs.
Male Swiss albino mice (15-25 g). The animals are fasted for 18 hours prior to use but have free access to water.
Drug Preparation and Administration:
Drugs are dissolved or suspended according to their solubility in 0.5% Tween 80 in distilled water. They are administered by gastric gavage in a volume of 5 mL/kg. […]
A modification of the method of Siegmund et al, Proc. Soc. Exp. Biol. Med., 95, 729-731 (1957) is used. Groups of 5 mice are dosed with the test compound or vehicle control. […] The number of writhing or abdominal squirming movements made by each mouse during the following 15 min. period is counted. The experiment is repeated with another group of 5 mice and the mean numbr of writhes per mouse for a group of 10 mice is calculated.
Drug treated and vehicle-treated control groups are compared and the percentage protection conferred by the drug is calculated: [formula] where c=mean number of writhes in the control group where t=mean number of writhes in the test drug group

| Structure (SMILES) | Preventative Adjuvant Edema, percent inhibition ([1]; 10 mg/kg) | Phenylquinone Writhing in Mice, percent inhibition ([2]; 10 mg/kg) | Preventative Adjuvant Edema, percent inhibition ([1]; 25 mg/kg) | Phenylquinone Writhing in Mice, percent inhibition ([2]; 200 mg/kg) |
| --- | --- | --- | --- | --- |
| C/C=C\c1c(F)ccc2c3c([nH]c12)C(CC)(CC(=O)O)OCC3 (stereo not shown) [Example 1, (Z)-1-Ethyl-7-fluoro-1,3,4,9-tetrahydro-8-(1-propenyl)pyrano[3,4-b]indole-1-acetic Acid, 1,2-Ethanediamine Salt] | 69% | 32% | – | – |
| C/C=C\c1cccc2c3c([nH]c12)C(CC)(CC(=O)O)OCC3 (stereo not shown) [Example 2, (Z)-1-Ethyl-8-(1-propenyl)-1,3,4,9-tetrahydropyrano[3,4-b]indole-1-acetic Acid] | – | – | 73% | 11% |
